In this assay the target is T1, human estrogen receptor α (ERα) (Homo sapiens, UniProt P03372).
T1 sequence (P03372 302-552 limits assumed): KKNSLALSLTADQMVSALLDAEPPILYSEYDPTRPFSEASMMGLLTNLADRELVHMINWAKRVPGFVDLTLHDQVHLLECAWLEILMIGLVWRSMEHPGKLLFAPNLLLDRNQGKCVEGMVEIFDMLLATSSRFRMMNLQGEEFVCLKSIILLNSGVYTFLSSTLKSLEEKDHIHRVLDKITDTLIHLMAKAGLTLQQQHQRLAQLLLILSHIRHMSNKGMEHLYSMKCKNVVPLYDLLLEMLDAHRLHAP
Format: binding.

By Ki is commonly meant a dissociation constant, usually derived from enzyme kinetics or from competition with a known ligand.

SMILES strings stand for the structures.

`C[C@]12CC[C@@H]3c4ccc(O)cc4CC[C@H]3[C@@H]1C[C@@H](F)[C@@H]2O` [FES, 16α-fluoroestradiol] showed a Ki of 0.3 ± 0.1 nM.

The record behind these values is paper PMC10938262 (Science translational medicine, 2023).
